These results are taken from PubChem BioAssay AID675 (The Scripps Research Institute Molecular Screening Center, 2007).

This assay has as its target Nuclear receptor ROR-alpha (Homo sapiens) (UniProt P35398). Description: RORA Gal4 reporter activation in CHO-K1 cells, dose response, counter-screen for SF-1 activator project, cell-based, Gal4-RORA LBD, luciferase luminescence (AID 675). (The purpose of a counterscreen is to sort out artefacts and off-target activity.)

By EC50 is commonly meant the midpoint of the concentration-response curve.

Active and inactive are the calls of the source.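 Rule for the calls: active = EC50 at or below a set limit for turning on the RORA orphan receptor reporter; inactive = the rest.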 A value given as a limit tells only on which side of the number the result lay.

Sequence of Nuclear receptor ROR-alpha (Homo sapiens) (P35398 whole entry, looked up, the tested form may be a part): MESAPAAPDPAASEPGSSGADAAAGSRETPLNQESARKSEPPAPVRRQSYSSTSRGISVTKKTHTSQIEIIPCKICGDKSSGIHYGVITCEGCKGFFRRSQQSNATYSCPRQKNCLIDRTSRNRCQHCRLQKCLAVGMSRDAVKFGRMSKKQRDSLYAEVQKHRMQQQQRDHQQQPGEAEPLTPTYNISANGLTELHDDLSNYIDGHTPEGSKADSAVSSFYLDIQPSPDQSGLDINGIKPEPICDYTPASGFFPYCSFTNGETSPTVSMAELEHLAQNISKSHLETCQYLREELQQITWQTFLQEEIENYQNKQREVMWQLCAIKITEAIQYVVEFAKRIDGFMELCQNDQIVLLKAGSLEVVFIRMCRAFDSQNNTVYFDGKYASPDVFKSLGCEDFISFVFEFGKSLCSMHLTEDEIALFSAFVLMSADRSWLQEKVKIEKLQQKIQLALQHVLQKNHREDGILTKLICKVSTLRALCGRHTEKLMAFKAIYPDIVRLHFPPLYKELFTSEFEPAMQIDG

In the case of `COC(=O)c1ccc(/C(O)=C(\C#N)c2nc3ccccc3s2)cc1`, the concentration for a half-maximal effect (EC50) is 1.61 µM. In the case of `COc1ccc(C(=O)/C=C/Nc2cccc(C)n2)cc1OC`, the half-maximal effective concentration (EC50) is 0.749 µM. With `COc1cc(C2C3C(=O)N(c4ccccc4)C(=O)C3ON2c2ccccc2)ccc1O` (stereo not drawn), the EC50 was > 33 µM (inactive).

As to `CC1(C)CC(=O)C(C=Nc2ccc3[nH]ncc3c2)=C(O)C1`, the EC50 is 9.88 µM. Regarding `C/C(N)=C(/C#N)C(=O)CSc1ccc2c(c1)OCCO2`, the EC50 was 1.17 µM. With `O=C1CCCC(O)=C1C=Nc1ccc(O)cc1`, the EC50 is > 99 µM (inactive). To `Cc1ccc(C2/C(=C(\O)c3cnn(-c4ccccc4)c3C)C(=O)C(=O)N2CCN(C)C)o1` (stereo not drawn) belongs 4.13 µM.

For `CC1(C)CC(=O)C(C=Nc2ccccc2)=C(O)C1`, the EC50 was > 99 µM (inactive).
